According to PubChem BioAssay (NCI):
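Each compound was tested at five concentrations against cells in 96-well plates for 48 hours. Abbreviation: GI50, concentration required for 50% inhibition of growth. TGI denotes the concentration required for complete inhibition of growth.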

How the values were obtained:
Assay in all cases: NCI anticancer screen, dose series, 48 h
[1] = tested on: HCT-15 colon
[2] = tested on: SF-295 CNS
[3] = tested on: M14 melanoma
[4] = tested on: KM12 colon
[5] = tested on: ACHN renal
[6] = tested on: SK-MEL-2 melanoma
[7] = tested on: IGROV1 ovarian
[8] = tested on: SW-620 colon
[9] = tested on: BT-549 breast
[10] = tested on: SR leukemia
[11] = tested on: A549 NSCLC
[12] = tested on: OVCAR-4 ovarian
[13] = tested on: HCT-116 colon
[14] = tested on: SNB-19 CNS
[15] = tested on: RPMI-8226 leukemia
[16] = tested on: NCI-H460 lung
[17] = tested on: CAKI-1 renal
[18] = tested on: HOP-92 NSCLC
[19] = tested on: SK-MEL-28 melanoma
[20] = tested on: NCI/ADR-RES ovarian
[21] = tested on: SF-539 CNS
[22] = tested on: HCC-2998 colon
[23] = tested on: UO-31 renal
[24] = tested on: TK-10 renal
[25] = tested on: NCI-H522 lung
[26] = tested on: SN12C renal
[27] = tested on: COLO 205 colon
[28] = tested on: NCI-H23 lung
[29] = tested on: MDA-MB-435
[30] = tested on: NCI-H226 lung
[31] = tested on: SK-MEL-5 melanoma
[32] = tested on: OVCAR-5 ovarian
[33] = tested on: U251 CNS
[34] = tested on: MDA-MB-231 breast
[35] = tested on: MOLT-4 leukemia
[36] = tested on: SNB-75 CNS
[37] = tested on: HT29 colon
[38] = tested on: UACC-62 melanoma
[39] = tested on: LOX IMVI melanoma
[40] = tested on: T-47D breast
[41] = tested on: OVCAR-3 ovarian
[42] = tested on: SF-268 CNS
[43] = tested on: DU-145 prostate
[44] = tested on: OVCAR-8 ovarian
[45] = tested on: SK-OV-3 ovarian
[46] = tested on: EKVX NSCLC
[47] = tested on: UACC-257 melanoma
[48] = tested on: RXF 393 renal
[49] = tested on: K-562 leukemia
[50] = tested on: A498 renal
[51] = tested on: HOP-62 NSCLC
[52] = tested on: PC-3 prostate
[53] = tested on: HS 578T breast
[54] = tested on: MCF7 breast
[55] = tested on: 786-0 renal
[56] = tested on: HL-60(TB) leukemia

## CCOC(=O)C(=Cc1ccc(-c2ccccc2)cc1)C(=O)OCC
[1]
  GI50: 1.93 µM
  TGI: 4.84 µM
[2]
  GI50: 5.22 µM
  TGI: 18.4 µM
[3]
  GI50: 3.14 µM
  TGI: 11.1 µM
[4]
  GI50: 3.37 µM
  TGI: 12.1 µM
[5]
  GI50: 1.83 µM
  TGI: 3.42 µM
[6]
  GI50: 3.81 µM
  TGI: 11.4 µM
[7]
  GI50: 2.29 µM
  TGI: 5.61 µM
[8]
  GI50: 2.07 µM
  TGI: 4.28 µM
[9]
  GI50: 2.64 µM
  TGI: 7.03 µM
[10]
  GI50: 3.13 µM
  TGI: 38.3 µM
[11]
  GI50: 3.61 µM
  TGI: > 100 µM
[12]
  GI50: 6.3 µM
  TGI: 19.9 µM
[13]
  GI50: 2.13 µM
  TGI: 4.91 µM
[14]
  GI50: 2.21 µM
  TGI: 5.14 µM
[15]
  GI50: 2.43 µM
  TGI: 7.04 µM
[16]
  GI50: 5.04 µM
  TGI: 17.2 µM
[17]
  GI50: 3.24 µM
  TGI: 10.8 µM
[18]
  GI50: 2.42 µM
  TGI: 6.72 µM
[19]
  GI50: 1.95 µM
  TGI: 4.23 µM
[20]
  GI50: 3 µM
  TGI: 8.77 µM
[21]
  GI50: 1.8 µM
  TGI: 3.35 µM
[22]
  GI50: 1.89 µM
  TGI: 3.54 µM
[23]
  GI50: 1.71 µM
  TGI: 3.29 µM
[24]
  GI50: 3.91 µM
  TGI: 13.3 µM
[25]
  GI50: 1.68 µM
  TGI: 3.38 µM
[26]
  GI50: 2.02 µM
  TGI: 4.23 µM
[27]
  GI50: 3.45 µM
  TGI: 11.1 µM
[28]
  GI50: 2.22 µM
  TGI: 6.34 µM
[29]
  GI50: 2.55 µM
  TGI: 7.57 µM
[30]
  GI50: 2.4 µM
  TGI: 5.21 µM
[31]
  GI50: 2.39 µM
  TGI: 5.75 µM
[32]
  GI50: 2.67 µM
  TGI: 6.48 µM
[33]
  GI50: 1.68 µM
  TGI: 5.67 µM
[34]
  GI50: 2.98 µM
  TGI: 7.2 µM
[35]
  GI50: 2.46 µM
  TGI: 6.59 µM
[36]
  GI50: 3.89 µM
  TGI: 16.3 µM
[37]
  GI50: 2.04 µM
  TGI: 3.88 µM
[38]
  GI50: 1.76 µM
  TGI: 3.69 µM
[39]
  GI50: 1.72 µM
  TGI: 3.21 µM
[40]
  GI50: 2.02 µM
  TGI: 4.74 µM
[41]
  GI50: 2.86 µM
  TGI: 8.18 µM
[42]
  GI50: 3.06 µM
  TGI: 11 µM
[43]
  GI50: 3.12 µM
  TGI: 11.1 µM
[44]
  GI50: 2.85 µM
  TGI: > 100 µM
[45]
  GI50: 11.7 µM
  TGI: 24.8 µM
[46]
  GI50: 10.3 µM
  TGI: 22.1 µM
[47]
  GI50: 3.53 µM
  TGI: 9.29 µM
[48]
  GI50: 1.95 µM
  TGI: 3.74 µM
[49]
  GI50: 3.17 µM
  TGI: > 100 µM
[50]
  GI50: 3.74 µM
  TGI: 12.8 µM
[51]
  GI50: 3.55 µM
  TGI: 11.3 µM
[52]
  GI50: 2.51 µM
  TGI: 6.09 µM
[53]
  GI50: 4.36 µM
  TGI: 25.7 µM
[54]
  GI50: 2.69 µM
  TGI: 13.2 µM
[55]
  GI50: 2.06 µM
  TGI: 4.16 µM
[56]
  GI50: 2.1 µM
  TGI: 4.7 µM
